# Entries after “also recorded” stand apart in the source; their conditions may differ.
# Key:
# α-1,4-glucan lyase [1] = assay: Elution of α-1,4-glucan lyase from the starch column by glucans; assay type: binding, Gracilariopsis lemaneiformis; conditions: glucan 8 mg ml^-1; column 1 ml, 5 ml eluate; recovery with amylopectin = 100%
# Description: In these experiments, as much as 5 times of the column volume was collected. At high pH, for example, 50 mM bicine-NaOH (pH 8.2), the binding of the enzyme onto the starch column was loose and it was eluted by subsequent washing with the same buffer. Neither ConA-Sepharose nor cycloheptaamylose-Sepharose 6B was effective for the purification of the enzyme because of low recovery.
# The efficiency of various glucans (8 mg ml^-1) on the elution of
# α-1,4-glucan lyase from the starch column. The column volume
# was 1 ml and 5 ml eluate was pooled. The recovery of
# α-1,4-glucan lyase eluted by amylopectin was used as 100%.
# Gracilariopsis lemaneiformis (originally collected from China), 30 g, was sampled directly from the culture cylinder and was rinsed briefly with deionized water and blotted dry with paper tissue. The following operations were carried out at 0°-4° C. The thalli were cut to pieces with scissors and pulverized under liquid nitrogen. To 1 g alga powder was added 3 volumes of buffer A (50 mM citrate-NaOH, pH 6.6), filtered through two-layer cloth and centrifuged at 36,600×g for 10 min. The supernatant (cell-free extract) was loaded onto a starch column (4.1×1.5 cm) pre-equilibrated with buffer A. After loading, the column was extensively washed with 4 volumes of buffer A, volumes of buffer A containing 1M NaCl, 1 volume of buffer A, 1 volume of buffer B (50 mM imidazole-HCl, pH 6.6) in a flow speed of 24 ml h^-1. α-1,4-Glucan lyase was eluted with buffer B containing 10 mg ml^-1 amylopectin in a fraction size of 3.5 ml. To separate α-1,4-glucan lyase from the amylopectin, the active fractions of the eluate were pooled and applied onto a Q-Sepharose column (2.6×5 cm). The column was pre-equilibrated and later washed with buffer B. α-1,4-Glucan lyase was eluted with buffer B containing 0.7M NaCl. Active fractions were pooled and concentrated on a Centriprep CP30 (Amicon, USA) with a molecule weight cutoff of 30,000 and applied to a Sephacryl S-200 column (2.6×80 cm) pre-equilibrated and eluted with buffer A containing 0.2M NaCl. The flow speed was 60 ml h^-1 with a fraction size of 3.5 ml per tube. Active fractions were collected and concentrated again by using centriprep CP30.
# α-1,4-glucan lyase [2] = assay: Substrate specificity of α-1,4-glucan lyase (release of 1,5-anhydrofructose, DNS method, 15 min); assay type: biochemical, Gracilariopsis lemaneiformis; conditions: for substrate inhibition: higher substrate concentrations, 10 mg ml^-1 compared with 2 and 4 mg ml^-1
# Description: When amylopectin was used as a substrate, the activity reached maximum 8 mg ml^-1 and then decreased slightly at 20 mg ml^-1. The same results were obtained with soluble starch and maltoheptaose. When maltotriose and maltose were used as substrates, the activity reached maximum at 2 mg ml^-1 and 6 mg ml^-1, respectively. Substrate inhibition became evident at higher concentrations, especially in the case of maltotriose. […] Generally, the inhibition degree decreased with the increase in DP number (Degree of Polymerization). When the activity measured at 10 mg ml^-1 was compared at 2 mg ml^-1 and 4 mg ml^-1, substrate inhibition could be clearly seen among the maltosaccharides of DP 3-5. In maltohexaose, the substrate inhibition was very low and was none in maltoheptaose. Among the maltosaccharides, maltotetraose and maltopentaose were the poorest substrates.
# With PNPG1 (p-nitrophenyl-α-D-glucoside), the artificial substrate of α-glucosidase, reaction rate was the lowest.
# Substrate Specificity of α-1,4-Glucan lyase.
# The concentration of various substrates in the reaction mixture
# was 10 mg ml^-1 except PNPG1, PNPG2, PNPG7, which was 2 mM.
# The incubation time was 15 min. The degrading rate of maltoheptaose
# was 84 μmol min^-1. mg^-1 protein.
# (§1) The reaction mixture for the assay of α-1,4-glucan lyase was composed of 240 μl 62.5 mM Mops-NaOH containing 6 mg soluble starch (pH 6.2), the enzyme preparation and distilled water to a final volume of 300 μl. The reaction was carried out at 30° C. for 10-30 min. Liberated 1,5-anhydrofructose was determined by monitoring the absorbance at 546 nm after the addition of 3,5-dinitrosalicylic acid reagent. Soluble starch in the reaction mixture may be replaced by other substrates and the final substrate concentration may be varied as indicated in the text. The reaction time and enzyme concentration used in enzyme activity assay have been chosen to ensure the linearity of the reaction rate. One unit of α-1,4-glucan lyase activity is defined as the amount of enzyme which liberates 1μmol of 1,5-anhydrofructose min^-1 under the conditions described above.
# α-1,4-glucan lyase [3] = assay: Reaction mode: complete degradation of substrates by the lyase and final products; assay type: biochemical, Gracilariopsis lemaneiformis; conditions: for time needed for a complete degradation: enzyme 6 μg protein per ml, 30° C.
# Description: In an enzyme concentration of 6 μg protein per ml, at 30° C., the time needed for a complete degradation of 1% maltose solution was 1 h, for 2% maltose solution, 3 h, for 5% maltose solution, 10-24 h, for 2% maltoheptaose, 10-24 h. This is in sharp contrast to many polysaccharides' depolymerization enzymes, whose reaction stops with the accumulation of products or with the decrease in substrate size.
# When maltoheptaose was used as a substrate, the final products are 1,5-anhydrofructose and glucose and their ratio is 6:1. The intermediate products are a mixture of maltosaccharides with a DP number between 2-6 during the process of the reaction. With the increase of reaction time, the DP number of the maltosaccharides decreased and finally all the maltosaccharides disappeared. When maltose was used as a substrate, the ratio of 1,5-anhydrofructose to glucose was 1:1. With the increase of DP number, the yield of glucose decreased, while the yield of 1,5-anhydrofructose increased. When a linear chain of a α-1,4-glucan is long enough, the yield of 1,5-anhydrofructose can be nearly 100%.
# α-1,4-glucan lyase [4] = assay: Inhibition studies of α-1,4-glucan lyase activity; assay type: biochemical, Gracilariopsis lemaneiformis; conditions: for inhibition of enzymic activity: 0.1M; for inhibition of the degradation of maltose: 3 mg/ml polysaccharide
# Description: as §1
# α-1,4-glucan lyase [5] = assay: Substrate specificity of α-1,4-glucan lyase, long term incubation (24 h), continuation of Table IV; assay type: biochemical, Gracilariopsis lemaneiformis
# Description: The incubation time was 24 h.
# as §1
# [6] = substrate 10 mg ml^-1, incubation 15 min
# [7] = substrate 2 mM, incubation 15 min
compound,measurement,setting,value
"OC[C@H]1O[C@H](O[C@H]2[C@H](O)[C@@H](O)[C@@H](O[C@H]3[C@H](O)[C@@H](O)[C@@H](O[C@H]4[C@H](O)[C@@H](O)C(O)O[C@@H]4CO)O[C@@H]3CO)O[C@@H]2CO)[C@H](O)[C@@H](O)[C@@H]1O (stereo partly shown) [Maltotetraose, maltotetraose]",Elution Efficiency,"α-1,4-glucan lyase [1]",65.7%
same,substrate inhibition,"α-1,4-glucan lyase [2]",showed substrate inhibition
same,Activity (% of Maltoheptaose),"α-1,4-glucan lyase [2]; [6]",27.8%
"OC[C@H]1OC(O)[C@H](O)[C@@H](O)[C@@H]1O (stereo partly shown) [Glucose, glucose]",Elution Efficiency,"α-1,4-glucan lyase [1]",0%
same,"conversion of monosaccharide to 1,5-anhydrofructose by the lyase","α-1,4-glucan lyase [3]",can not convert
same,inhibition of enzymic activity,"α-1,4-glucan lyase [4]; amylopectin as substrate",no inhibition
same,inhibition of enzymic activity,"α-1,4-glucan lyase [4]; maltose as substrate",around 22%
same,product inhibition: effect on enzyme reaction rate,"α-1,4-glucan lyase [4]; products accumulating during the enzyme reaction",negligible effect
glycogen,Elution Efficiency,"α-1,4-glucan lyase [1]",87.1%
same,Activity (% of Maltoheptaose),"α-1,4-glucan lyase [2]; [6]",77.6%
same,inhibition of the degradation of maltose,"α-1,4-glucan lyase [4]; maltose as substrate",~47%
pullulan,Elution Efficiency,"α-1,4-glucan lyase [1]",32.3%
same,inhibition of the degradation of maltose,"α-1,4-glucan lyase [4]; maltose as substrate",did not inhibit
same,activity of the lyase with the substrate (in words),"α-1,4-glucan lyase [5]; long term incubation at 30° C.",no detectable activity; also recorded: little or no activity
same,Product released,"α-1,4-glucan lyase [5]; substrate 4 mg ml^-1, 1.64 μg enzyme, 24 h",0 nmol
OC[C@H]1OC(O)[C@@H](O)[C@@H](O)[C@@H]1O (stereo partly shown) [mannose],"conversion of monosaccharide to 1,5-anhydrofructose by the lyase","α-1,4-glucan lyase [3]",can not convert
same,inhibition of enzymic activity,"α-1,4-glucan lyase [4]; amylopectin as substrate",no inhibition
same,inhibition of enzymic activity,"α-1,4-glucan lyase [4]; maltose as substrate",no inhibition
"OC[C@H]1O[C@H](O[C@H]2[C@H](O)[C@@H](O)[C@@H](O[C@H]3[C@H](O)[C@@H](O)[C@@H](O[C@H]4[C@H](O)[C@@H](O)[C@@H](O[C@H]5[C@H](O)[C@@H](O)[C@@H](O[C@H]6[C@H](O)[C@@H](O)[C@@H](O[C@H]7[C@H](O)[C@@H](O)C(O)O[C@@H]7CO)O[C@@H]6CO)O[C@@H]5CO)O[C@@H]4CO)O[C@@H]3CO)O[C@@H]2CO)[C@H](O)[C@@H](O)[C@@H]1O (stereo partly shown) [Maltoheptaose, maltoheptaose]",Elution Efficiency,"α-1,4-glucan lyase [1]",94.3%
same,substrate inhibition,"α-1,4-glucan lyase [2]",none
same,Activity (% of Maltoheptaose),"α-1,4-glucan lyase [2]; [6]",100.0%
same,degrading rate,"α-1,4-glucan lyase [2]; [6]",84 μmol min^-1. mg^-1 protein
same,time needed for a complete degradation,"α-1,4-glucan lyase [3]; 2% maltoheptaose",10 to 24 h
amylopectin,Elution Efficiency,"α-1,4-glucan lyase [1]",100%
same,substrate concentration at which the activity reached maximum,"α-1,4-glucan lyase [2]",8 mg/mL
same,Activity (% of Maltoheptaose),"α-1,4-glucan lyase [2]; [6]",94.1%
same,inhibition of the degradation of maltose,"α-1,4-glucan lyase [4]; maltose as substrate",around 67%
same,type of inhibition,"α-1,4-glucan lyase [4]; maltose as substrate",mixed competive/non-competive
same,inhibition of the algal enzyme (in words),"α-1,4-glucan lyase [4]; summary statement, maltose as substrate",inhibited
"O=[N+]([O-])c1ccc(O[C@H]2O[C@H](CO)[C@@H](O[C@H]3O[C@H](CO)[C@@H](O[C@H]4O[C@H](CO)[C@@H](O[C@H]5O[C@H](CO)[C@@H](O[C@H]6O[C@H](CO)[C@@H](O[C@H]7O[C@H](CO)[C@@H](O[C@H]8O[C@H](CO)[C@@H](O)[C@H](O)[C@H]8O)[C@H](O)[C@H]7O)[C@H](O)[C@H]6O)[C@H](O)[C@H]5O)[C@H](O)[C@H]4O)[C@H](O)[C@H]3O)[C@H](O)[C@H]2O)cc1 [PNPG7, p-nitrophenyl-α-D-maltoheptaoside]",Activity (% of Maltoheptaose),"α-1,4-glucan lyase [2]; [7]",100.0%
OC[C@H]1OC(O)[C@H](O)[C@@H](O)[C@H]1O (stereo partly shown) [galactose],"conversion of monosaccharide to 1,5-anhydrofructose by the lyase","α-1,4-glucan lyase [3]",can not convert
same,inhibition of enzymic activity,"α-1,4-glucan lyase [4]; amylopectin as substrate",no inhibition
same,inhibition of enzymic activity,"α-1,4-glucan lyase [4]; maltose as substrate",no inhibition
"O=[N+]([O-])c1ccc(O[C@H]2O[C@H](CO)[C@@H](O)[C@H](O)[C@H]2O)cc1 [PNPG1, p-nitrophenyl-α-D-glucoside]",Activity (% of Maltoheptaose),"α-1,4-glucan lyase [2]; [7]",0.113%
soluble starch,Activity (% of Maltoheptaose),"α-1,4-glucan lyase [2]; [6]",100.2%
O=C(CO)[C@@H](O)[C@H](O)[C@H](O)CO [fructose],"conversion of monosaccharide to 1,5-anhydrofructose by the lyase","α-1,4-glucan lyase [3]",can not convert
same,inhibition of enzymic activity,"α-1,4-glucan lyase [4]; amylopectin as substrate",no inhibition
same,inhibition of enzymic activity,"α-1,4-glucan lyase [4]; maltose as substrate",no inhibition
floridean starch,Activity (% of Maltoheptaose),"α-1,4-glucan lyase [2]; [6]",61.9%
"OC[C@H]1O[C@H](O[C@H]2[C@H](O)[C@@H](O)[C@H](O)O[C@@H]2CO)[C@H](O)[C@@H](O)[C@@H]1O [Maltose, maltose]",Elution Efficiency,"α-1,4-glucan lyase [1]",56.4%
same,substrate concentration at which the activity reached maximum,"α-1,4-glucan lyase [2]",6 mg/mL
same,substrate inhibition,"α-1,4-glucan lyase [2]",showed substrate inhibition
same,Activity (% of Maltoheptaose),"α-1,4-glucan lyase [2]; [6]",66.7%
same,time needed for a complete degradation,"α-1,4-glucan lyase [3]; 1% solution",1 h
same,time needed for a complete degradation,"α-1,4-glucan lyase [3]; 2% maltose solution",3 h
same,time needed for a complete degradation,"α-1,4-glucan lyase [3]; 5% solution",10 to 24 h
"OC[C@H]1O[C@H](O[C@H]2[C@H](O)[C@@H](O)[C@@H](O[C@H]3[C@H](O)[C@@H](O)C(O)O[C@@H]3CO)O[C@@H]2CO)[C@H](O)[C@@H](O)[C@@H]1O (stereo partly shown) [Maltotriose, maltotriose]",substrate concentration at which the activity reached maximum,"α-1,4-glucan lyase [2]",2 mg/mL
same,substrate inhibition,"α-1,4-glucan lyase [2]",showed substrate inhibition
same,Activity (% of Maltoheptaose),"α-1,4-glucan lyase [2]; [6]",39.1%
